Patent publication US10993917B2, “Nanocomplex” (AGENCY FOR SCIENCE, TECHNOLOGY AND RESEARCH, priority 2016, dated 2021)

Experiments:
[1] = Blood chemistry analysis 38 days after first treatment; assay type: in vivo, athymic NCR mice; conditions: 38-days endpoint, 1 mg Pt kg^−1 i.v. days 0, 7, 14
Description: The athymic NCR mice that received different treatments were sacrificed to collect blood, tumor, and organs 38 days after the first treatment. For blood chemistry analysis, blood samples were collected in heparinized tubes and then examined using the Vetscan VS2 blood chemistry analyzer (Abaxis Inc., of California of the United States of America). The levels of alkaline phosphatase (ALP), alanine aminotransferase (ALT) and other serum markers were examined. The excised tumors and organs were fixed with neutral buffered formalin, embedded in paraffin blocks, and then sectioned for hematoxylin and eosin (H&E) staining.

[2] = Biodistribution study in SKOV-3 tumor-bearing mice; assay type: in vivo, athymic NCR nude mice; conditions: intravenous, 2 mg Pt kg^−1, 4 hours post-injection
Procedure: All animal experiments were performed according to the protocols approved by the IACUC at the Biological Resource Centre, Singapore. Female athymic NCR nude mice (CrTac:Ncr-Foxn1^nu, 5-6 weeks old) were inoculated subcutaneously with 1×10^7 SKOV-3 cells suspended in 100 μL of PBS and 100 μL of Matrigel (BD Bioscience, of the United States of America) in the right flank. […] At predetermined time points, blood and organs were collected (4 mice per time point). The collected plasma and organs were decomposed in 65% (v/v) nitric acid at 60° C. for 2 hours, and the platinum concentration was measured by ICP-MS.

[3] = test system: SKOV-3 human ovarian cancer xenograft; assay: Antitumor efficacy study in a subcutaneous xenograft model; assay type: in vivo, NCR mice; conditions: 1 mg Pt kg^−1 i.v. on days 0, 7 and 14
Procedure: Female NCR mice bearing a subcutaneous SKOV-3 human ovarian cancer xenograft (120-150 mm^3) were randomly allocated to different treatments (10 mice per group). […] An isotonic dextrose solution (5% w/v) was used as a control. The tumor volume (mm^3) was calculated from the following formula: volume=(length×width^2)/2. In addition, a change in the body weight in the course of treatment was monitored as a measure of systemic toxicity.

[4] = Drug release study by dialysis in PBS pH 7.4 (physiological stability); assay type: physicochemical; conditions: 10 mM PBS pH 7.4, 37° C.
Procedure: The dialysis tube was immersed in total 30 mL of 10 mM PBS (pH 7.4). The dialysis tube was then incubated at 37° C. on an orbital shaker at 50 rpm. […] The dialysis tube was then immersed in total 30 mL of 100 mM phosphate buffer (pH 6) at 37° C. At predetermined time points, the amount of cisplatin released in the medium was determined by ICP-MS as described above. […] This rapid drug leakage was caused by the dissociation of HA/cisplatin complexes via the replacement of the carboxylate ligand of Pt(II) with the chloride ion in PBS.

N.N.[Cl][Pt][Cl] [free cisplatin, cisplatin]
ALP level in blood [1]: elevated
ALT level in blood [1]: elevated
cisplatin dose delivered into the tumor mass [2]: 1.53±0.48 % ID/g
platinum accumulation in the liver [2]: 1.31±0.25 % ID/g
tumor growth [3]: slightly delayed the tumor growth
mean tumor volume ([3]; day 38): 299.7±117.7 mm^3
time to complete release from the dialysis tube [4]: ≤ 6 h
